This note sets out measurements from patent US20110166132A1, “Gamma Secretase Modulators” (Amgen Inc., priority 2007, published 2011).

For this experiment, the target named is T1, gamma secretase (Homo sapiens, UniProt P49768).
T1 construct: HEK293 cells stably expressing full length Amyloid Precursor Protein (APP); endogenous in cells; host or cells: HEK 293 cells stably expressing full length APP
Briefly: GSM cell-based assay: Aβ 42 inhibition or reduction in HEK 293 cells over-expressing APP (sandwich ELISA). The following applies: approximate IC50; HEK293 cells stably expressing full length APP, 24 hours incubation, 10-point dose response starting at 10 μM. An excerpt:
GSM cell-based assays were designed to measure the modulation of Aβ 42 from HEK 293 cells over-expressing APP.
Three simultaneous cell-based assays, namely Aβ 42 inhibition or reduction, Aβ 40 inhibition or reduction and a measurement of cell viability of the cells from which the Aβ 42/40 readout was obtained, together gave an interpretation of gamma secretase modulation (GSM). The assays measure Aβ 42 and Ab 40 from conditioned medium of test compound treated HEK 293 cells.
HEK293 cells stably expressing full length Amyloid Precursor Protein (APP) were plated at a density of 100K cells/well in 96 well plates (Costar). The cells were cultivated for 6 hours at 37° C. and 5% CO2 in DMEM supplemented with 10% FBS. The test compounds were then added to cells in 10-point dose response concentrations with the starting concentration being 10 μM. The compounds were diluted from stock solutions in DMSO and the final DMSO concentration of the test compounds on cells was 0.1%. After 24 hours of incubation with the test compounds the supernatant conditioned media was collected and the Aβ 42, Aβ 40 levels were determined using a sandwich ELISA. A cell viability test (CellTiter-Blue Cell Viability assay, Promega) on the cells from which the conditioned medium was harvested for Aβ 42 or Aβ 40 readouts gave an indication of cell survivability as a possible reason for false positive Aβ 42 or 40 reduction or inhibition readout. The IC50 of the compound (for either Aβ 42 or Aβ 40) was calculated from the percent of control or percent inhibition of Aβ 42 or Aβ 40 as a function of the concentration of the test compound.
The sandwich ELISA to detect Aβ 42 or Aβ 40 was performed in 96 well microtiter plates, which were pre-treated with goat anti-rabbit IgG (Pierce). The capture and detecting antibody pair that were used to detect Aβ 42 and Aβ 40 from cell supernatants were rabbit monoclonal Antibody 42 (RabMAb 42) and affinity purified polyclonal Antibody 40 pAB40 (Biosource) as capture antibodies and biotinylated 6E10 (Signet Labs Inc.) as detection antibody. The optimal concentration for RabMAb 42 was 1 μg/ml in Superblock/TBS (Pierce) that was supplemented with 0.05% Tween 20 (Sigma). The optimal concentration for the pAb40 antibody was 3 μg/ml in Superblock/TBS (Pierce) that was supplemented with 0.05% Tween 20 (Sigma). Optimal concentration for the detection antibody 6E10-biotinylated was 0.5 μg/ml in Superblock/TBS (Pierce) that had been supplemented with 2% normal goat serum and 2% normal mouse serum.
Cellular supernatants were incubated with the capture antibody for 16-20 hours at 4° C., followed by 3 wash steps in TBS-tween (0.05%). The detecting antibody incubation was for 3 hours at 4° C., again followed by the wash steps as described previously. The final readout of the ELISA is Time-Resolved Fluorescence (counts per minute) using Delfia reagents Streptavidin-Europium and Enhancement solutions (Perkin Elmer) and the EnVision Multilabel plate reader (Perkin Elmer).
(In general: In an ELISA, binding on a coated surface is turned into a signal by an enzyme label.)
Regarding `Cc1cc(-c2ccc(NC(=O)C(C)c3cccc(-c4ccc(OC(F)(F)F)cc4)c3)cc2)ccn1` (stereo not shown) [Cpd 453, N-(4-(2-methyl-4-pyridinyl)phenyl)-2-(4′-(trifluoromethoxy)-3-biphenylyl)-propanamide], the IC50 (commonly the concentration that gives 50% inhibition) amounted to 1420 nM. This counts as single-digit micromolar. The compound `Cc1cc(-c2ccc(NC(=O)Cc3c(F)cccc3Cl)cc2)ccn1` [Cpd 106, 2-(2-chloro-6-fluorophenyl)-N-(4-(2-methyl-4-pyridinyl)phenyl)acetamide] came in with an IC50 greater than 10000 nM. `Cc1cc(-c2ccc(NC(=O)C3CC3(F)F)cc2)ccn1` (stereo not shown) [Cpd 185] yielded an IC50 of 910 nM. The compound `Cc1cc(-c2ccc(NC(=O)C(C)c3cccc(N4CCOCC4)n3)cc2)ccn1` (stereo not shown) [Cpd 141] yielded a half-inhibitory concentration (IC50) of 8570 nM. For `Cc1cc(-c2ccc(NC(=O)c3cccc(N(C)C)c3)cc2)ccn1` [Cpd 46], the 50% inhibitory concentration (IC50) is greater than 10000 nM.

In the case of `COc1ncc(-c2cccc(C(C)C(=O)Nc3ccc(-c4ccnc(C)c4)cc3)c2)cn1` (stereo not shown) [Cpd 156, 2-(3-(2-methoxy-5-pyrimidinyl)phenyl)-N-(4-(2-methyl-4-pyridinyl)phenyl)-propanamide], the midpoint of inhibition, the IC50, lay at 246 nM.

`Cc1cc(-c2ccc(NC(=O)c3cn4cc(Cl)ccc4n3)cc2)ccn1` [Cpd 300] returned an IC50 greater than 10000 nM.

Regarding `Cc1cc(-c2ccc(NC(=O)C3CC(=O)N(c4ccc(Cl)cc4)C3)cc2)ccn1` (stereo not shown) [Cpd 308], the IC50 was greater than 10000 nM. To `Cc1cc(-c2ccc(NC(=O)C(C)c3cccc(Cl)n3)cc2)ccn1` (stereo not shown) [Cpd 24, 2-(6-chloro-2-pyridinyl)-N-(4-(2-methyl-4-pyridinyl)phenyl)propanamide] belongs 1970 nM; to `Cc1cc(-c2ccc(NC(=O)c3cn4cc(Br)ccc4n3)cc2)ccn1` [Cpd 315], 2160 nM; to `Cc1cc(-c2ccc(NC(=O)C(C)c3cccc(Nc4ccccc4)c3)cc2)ccn1` (stereo not shown) [Cpd 165, N-(4-(2-methyl-4-pyridinyl)phenyl)-2-(3-(phenylamino)phenyl)propanamide], 1160 nM. Consider `Cc1cc(-c2ccc(NC(=O)C(C)c3cccc(-c4csc(N5CCOCC5)n4)c3)cc2)ccn1` (stereo not shown) [Cpd 183], for which half-maximal inhibition (IC50) was put at 827 nM. To `Cc1cc(-c2ccc(NC(=O)Cc3ccc4oc(-c5ccncc5)nc4c3)cc2)ccn1` [Cpd 584, N-(4-(2-methyl-4-pyridinyl)phenyl)-2-(2-(4-pyridinyl)-1,3-benzoxazol-5-yl)-acetamide] belongs greater than 10000 nM.

Consider `Cc1cc(-c2ccc(NC(=O)C3CC3)cc2)ccn1` [Cpd 54], for which the IC50 was greater than 10000 nM. The figure for `Cc1cc(-c2ccc(NC(=O)C3CCCO3)cc2)ccn1` (stereo not shown) [Cpd 52] is greater than 10000 nM; for `Cc1cc(-c2ccc(NC(=O)c3ccc(-c4ccccc4)cc3)cc2)ccn1` [Cpd 280] it is greater than 10000 nM.

For the compound `Cc1cc(-c2ccc(NC(=O)[C@@H](C)c3ccccc3)cc2)ccn1` [Cpd 21, (2S)-N-(4-(2-methyl-4-pyridinyl)phenyl)-2-phenylpropanamide], the IC50 came to 1700 nM. Compound `CCCC(C(=O)Nc1ccc(-c2ccnc(C)c2)cc1)c1ccccc1` (stereo not shown) [Cpd 368, N-(4-(2-methyl-4-pyridinyl)phenyl)-2-phenylpentanamide] came in with an IC50 of 2650 nM. The figure for `Cc1cc(-c2ccc(NC(=O)C(C)c3cccc(Br)c3)cc2C#N)ccn1` (stereo not shown) [Cpd 460, 2-(3-bromophenyl)-N-(3-cyano-4-(2-methyl-4-pyridinyl)phenyl)propanamide] is 5760 nM; for `Cc1cc(-c2ccc(NC(=O)Cc3ccc4c(c3)OCO4)cc2)ccn1` [Cpd 16, 2-(1,3-benzodioxol-5-yl)-N-(4-(2-methyl-4-pyridinyl)phenyl)acetamide] it is 473 nM. To `Cc1cc(-c2ccc(NC(=O)c3cccc(Oc4ccccc4)c3)cc2)ccn1` [Cpd 31] belongs 854 nM.

Compound `Cc1cc(-c2ccc(NC(=O)Cc3ccc4oc(-c5ccccc5)nc4c3)cc2)ccn1` [Cpd 125, N-(4-(2-methyl-4-pyridinyl)phenyl)-2-(2-phenyl-1,3-benzoxazol-5-yl)acetamide] gave an IC50 of 272 nM. Compared with the last compound, the IC50 is about 3.1-fold lower.

Take `Cc1cc(-c2ccc(NC(=O)C(C)c3ccc(NC4CCOCC4)cc3)cc2)ccn1` (stereo not shown) [Cpd 188, N-(4-(2-methyl-4-pyridinyl)phenyl)-2-(4-(tetrahydro-2H-pyran-4-ylamino)phenyl)-propanamide]: the IC50 amounted to 2590 nM. Take `Cc1cc(-c2ccc(NC(=O)C3CC3(C)C)cc2)ccn1` (stereo not shown) [Cpd 184]: half-maximal inhibition (IC50) required 1090 nM.

With `Cc1cc(-c2ccc(NC(=O)[C@H](C)c3cc(C(F)(F)F)cc(C(F)(F)F)c3)cc2)ccn1` [Cpd 1, (2R)-2-(3,5-bis(trifluoromethyl)phenyl)-N-(4-(2-methyl-4-pyridinyl)phenyl)-propanamide], the IC50 was 256 nM. To `Cc1cc(-c2ccc(NC(=O)C(c3ccccc3)C(C)C)cc2)ccn1` (stereo not shown) [Cpd 39, 3-methyl-N-(4-(2-methyl-4-pyridinyl)-phenyl)-2-phenylbutanamide] belongs 474 nM; to `Cc1cc(-c2ccc(NC(=O)CC3CCCC3)cc2)ccn1` [Cpd 558, 2-cyclopentyl-N-(4-(2-methyl-4-pyridinyl)-phenyl)acetamide], greater than 10000 nM. The figure for `Cc1cc(-c2ccc(NC(=O)c3cn4c(C)cccc4n3)cc2)ccn1` [Cpd 20] is 2610 nM. The figure for `Cc1cc(-c2ccc(NC(=O)C(C)n3ccc4ccccc43)cc2)ccn1` (stereo not shown) [Cpd 414, 2-(1H-indol-1-yl)-N-(4-(2-methyl-4-pyridinyl)phenyl)propanamide] is 1020 nM; for `Cc1cc(-c2ccc(NC(=O)C(C)c3cc(N4CCOCC4)cc(C(F)(F)F)c3)cc2)ccn1` (stereo not shown) [Cpd 441, N-(4-(2-methyl-4-pyridinyl)phenyl)-2-(3-(4-morpholinyl)-5-(trifluoromethyl)phenyl)-propanamide] it is 1840 nM. On to `Cc1cc(-c2ccc(NC(=O)C(CC(C)C)c3cccc(S(C)(=O)=O)c3)cc2)ccn1` (stereo not shown) [Cpd 145], for which the IC50 was greater than 10000 nM. To `CC(=O)c1ccc(-c2cccc(C(C)C(=O)Nc3ccc(-c4ccnc(C)c4)cc3)c2)cc1` (stereo not shown) [Cpd 158, 2-(4′-acetyl-3-biphenylyl)-N-(4-(2-methyl-4-pyridinyl)phenyl)propanamide] belongs 139 nM; to `CC[C@@H](C(=O)Nc1ccc(-c2ccnc(C)c2)cc1)c1ccccc1` [Cpd 344, (2R)-N-(4-(2-methyl-4-pyridinyl)phenyl)-2-phenylbutanamide], greater than 10000 nM; to `Cc1cc(-c2ccc(NC(=O)Cc3cccc(C#N)c3)cc2)ccn1` [Cpd 321, 2-(3-cyanophenyl)-N-(4-(2-methyl-4-pyridinyl)phenyl)acetamide], greater than 10000 nM.

The compound `Cc1cc(-c2ccc(NC(=O)Cc3ccc4oc(-c5cccnc5)nc4c3)cc2)ccn1` [Cpd 583, N-(4-(2-methyl-4-pyridinyl)phenyl)-2-(2-(3-pyridinyl)-1,3-benzoxazol-5-yl)-acetamide] yielded an IC50 of 4610 nM. In the case of `Cc1cc(-c2ccc(NC(=O)[C@@H](C)c3cc(C(F)(F)F)cc(C(F)(F)F)c3)cc2)ccn1` [Cpd 290, (2S)-2-(3,5-bis(trifluoromethyl)phenyl)-N-(4-(2-methyl-4-pyridinyl)phenyl)-propanamide], the IC50 is greater than 10000 nM. The figure for `Cc1cc(-c2ccc(NC(=O)C(C)c3cccc(-c4cccc(C#N)c4)c3)cc2)ccn1` (stereo not shown) [Cpd 154, 2-(3′-cyano-3-biphenylyl)-N-(4-(2-methyl-4-pyridinyl)phenyl)propanamide] is 216 nM.
